US7504517B2, “Kv1.5 potassium channel inhibitors” (Wyeth, priority 2006, dated 2009)
One block for each compound: values may come before it.

Legend:
L-type calcium channels = experiment: FLIPR L-Type Calcium Channel Assay; assay type: cell-based, murine; settings: HL-1 cells expressing endogenous L-type calcium channels; calcium influx after 20 mM KCl; read-out: L-type Ca^2+ IC50
Description: 50 μL per well test compounds are added to the plates and further incubated for 15 min. in a 5% CO2 37° C. incubator. All final solutions contain the anion exchange inhibitor, probenecid (2.5 mM). The 96-well plates are then placed in the center position of the FLIPR 1 (Fluorometric Imaging Plate Reader, Molecular Devices Corporation). Cell monolayers in each well are simultaneously illuminated at 488 nm with an Argon ion laser, and fluorescence emission is monitored using a 510-570 nm bandpass filter and a cooled CCD camera. To depolarize the plasma membrane and activate L-type calcium channels, 50 μL per well of 20 mM KCl (final concentration) are dispensed simultaneously to all 96 wells using the FLIPR's automatic 96-well pipettor. Fluorescence measurements are captured for 5 min. following KCl addition. Calcium influx, expressed as % control, is calculated for each concentration of test compound and concentration-response curves and IC50 values are generated using GraphPad Prism 4.0.

Kv1.5 = molecular target: T1, Kv1.5 (Homo sapiens, UniProt P22460); experiment: Kv1.5 Patch Clamp EP; assay type: cell-based; settings: whole cell patch clamp; for inhibition at 1 µM: single point, Kv1.5 stably over expressed in HEK or LTK- cells; for IC50: HEK or LTK- cells, at least four concentrations, n=3
T1 construct: expressed in transfected cells; host or cells: HEK or LTK- cells
Description: The external solution is standard Tyrodes solution. […] Inhibition was measured at the end of the 1 second pulses and expressed relative to controls. Initial Kv1.5 inhibition is estimated by single point determinations done at 1 μM.

HERG = HERG (Homo sapiens, UniProt Q12809); experiment: HERG Patch Clamp EP; settings: for inhibition at 10 µM: human, HEK cells stably overexpressing HERG
Sequence of HERG (Q12809 whole entry): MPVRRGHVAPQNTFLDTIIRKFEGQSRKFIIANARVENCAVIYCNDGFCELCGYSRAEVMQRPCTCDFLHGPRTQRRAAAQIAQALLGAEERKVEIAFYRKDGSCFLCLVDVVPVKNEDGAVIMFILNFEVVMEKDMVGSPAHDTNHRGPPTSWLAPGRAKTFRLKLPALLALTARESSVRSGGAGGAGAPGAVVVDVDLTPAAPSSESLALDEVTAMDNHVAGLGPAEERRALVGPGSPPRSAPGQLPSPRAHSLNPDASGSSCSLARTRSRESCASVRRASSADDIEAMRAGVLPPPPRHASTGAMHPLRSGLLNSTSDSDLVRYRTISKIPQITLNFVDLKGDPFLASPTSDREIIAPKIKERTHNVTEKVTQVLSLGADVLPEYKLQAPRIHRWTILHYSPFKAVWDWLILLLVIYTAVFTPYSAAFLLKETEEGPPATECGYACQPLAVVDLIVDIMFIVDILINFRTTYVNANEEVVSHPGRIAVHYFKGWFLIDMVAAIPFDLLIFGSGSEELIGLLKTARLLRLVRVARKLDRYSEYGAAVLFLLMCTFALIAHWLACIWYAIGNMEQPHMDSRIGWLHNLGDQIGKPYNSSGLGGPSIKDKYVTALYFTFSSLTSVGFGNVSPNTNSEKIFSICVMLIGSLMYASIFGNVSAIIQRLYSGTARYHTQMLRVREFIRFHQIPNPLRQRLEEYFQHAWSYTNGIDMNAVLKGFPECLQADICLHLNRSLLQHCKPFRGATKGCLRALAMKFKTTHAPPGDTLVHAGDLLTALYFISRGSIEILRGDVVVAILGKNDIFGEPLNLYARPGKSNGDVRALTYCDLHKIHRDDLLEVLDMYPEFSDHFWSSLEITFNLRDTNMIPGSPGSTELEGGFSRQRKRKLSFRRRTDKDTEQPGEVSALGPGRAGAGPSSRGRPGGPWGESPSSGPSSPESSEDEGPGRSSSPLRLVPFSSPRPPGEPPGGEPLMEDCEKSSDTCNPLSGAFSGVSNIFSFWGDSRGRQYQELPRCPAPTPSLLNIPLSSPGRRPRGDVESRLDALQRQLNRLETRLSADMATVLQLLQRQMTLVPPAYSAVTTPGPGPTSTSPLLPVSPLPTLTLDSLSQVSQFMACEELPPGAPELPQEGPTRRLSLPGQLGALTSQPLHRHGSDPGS

T1 sequence (P22460 whole entry): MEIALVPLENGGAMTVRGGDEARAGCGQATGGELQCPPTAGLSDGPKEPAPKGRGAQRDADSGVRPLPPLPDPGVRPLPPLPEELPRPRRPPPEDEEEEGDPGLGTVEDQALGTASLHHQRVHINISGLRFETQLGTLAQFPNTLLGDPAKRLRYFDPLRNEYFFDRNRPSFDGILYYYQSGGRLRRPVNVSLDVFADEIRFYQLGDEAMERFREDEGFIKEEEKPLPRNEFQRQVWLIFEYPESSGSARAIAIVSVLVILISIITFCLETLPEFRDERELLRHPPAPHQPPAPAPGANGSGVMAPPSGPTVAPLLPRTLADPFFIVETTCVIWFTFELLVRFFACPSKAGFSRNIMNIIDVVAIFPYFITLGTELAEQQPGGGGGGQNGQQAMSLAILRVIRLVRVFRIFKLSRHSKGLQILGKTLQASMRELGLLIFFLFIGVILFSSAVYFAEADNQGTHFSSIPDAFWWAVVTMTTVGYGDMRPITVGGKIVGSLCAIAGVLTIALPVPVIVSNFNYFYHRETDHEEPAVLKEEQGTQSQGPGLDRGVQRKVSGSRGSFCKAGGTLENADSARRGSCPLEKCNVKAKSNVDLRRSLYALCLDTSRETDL

IC50 (L-type calcium channels): 23 µM
inhibition at 1 µM (Kv1.5): 76%
IC50 (Kv1.5): 0.466 µM
Compound: COc1ccc(CCCN2C(=O)N(NS(C)(=O)=O)CC2c2ccc(OC)cc2)cc1 (stereo not shown) [Compound 49, 1-(Methylsulfonylamino)-3-[3-(4-methoxyphenyl)propyl]-4-[(4-methoxy)-phenyl]-2-imidazolidinone]
IC50 (HERG): 11.4 µM
inhibition at 10 µM (HERG): 25%

IC50 (L-type calcium channels): 7 µM
inhibition at 1 µM (Kv1.5): 62%
IC50 (Kv1.5): 0.658 µM
Compound: COc1ccc(CCN2C(=O)N(NC(=O)C3CC3)CC2c2ccc(C(C)(C)C)cc2)cc1 (stereo not shown) [Compound 73, 1-Cyclopropanecarbonylamino-4-[4-(tert-butyl)phenyl]-3-[2-(4-methoxy-phenyl)ethyl]-2-imidazolidinone]
inhibition at 10 µM (HERG): 56%

IC50 (L-type calcium channels): 4.3 µM
inhibition at 1 µM (Kv1.5): 93%
Compound: COc1ccc(CCN2C(=O)N(NS(=O)(=O)Cc3ccccc3)CC2c2ccc(C)c(C)c2)cc1 (stereo not shown) [Compound 43, 1-[(Phenylmethyl)sulfonylamino]-3-[2-(4-methoxyphenyl)ethyl]-4-(3,4-dimethyl-phenyl)-2-imidazolidinone]
inhibition at 10 µM (HERG): 2%

IC50 (L-type calcium channels): 3.3 µM
inhibition at 1 µM (Kv1.5): 92%
Compound: COc1ccc(CCN2C(=O)N(NC(=O)OC(C)(C)C)CC2c2ccc(C)c(C)c2)cc1 (stereo not shown) [Compound 85, {4-(3,4-dimethylphenyl)-3-[2-(4-methoxyphenyl)ethyl]-2-oxo-imidazolidin-1-yl}-carbamic acid tert-butyl ester]
inhibition at 10 µM (HERG): 52%

IC50 (L-type calcium channels): 9.8 µM
inhibition at 1 µM (Kv1.5): 55%
Compound: COc1ccc(CCN2C(=O)N(NS(C)(=O)=O)C[C@H]2c2ccc(C(C)(C)C)cc2)cc1 [Compound 172, N-{(4R)-4-(4-tert-butylphenyl)-3-[2-(4-methoxyphenyl)ethyl]-2-oxoimidazolidin-1-yl}methanesulfonamide]
inhibition at 10 µM (HERG): 51%

IC50 (L-type calcium channels): 30 µM
inhibition at 1 µM (Kv1.5): 70%
Compound: COc1ccc(CCN2C(=O)N(NS(=O)(=O)CC#N)CC2c2ccc3c(c2)OCCO3)cc1 (stereo not shown) [Compound 40, 1-(Cyanomethylsulfonylamino)-3-[2-(4-methoxyphenyl)ethyl]-4-[(2,3-dihydro-benzo[b][1,4]dioxin-6-yl)]-2-imidazolidinone]
inhibition at 10 µM (HERG): 1%

IC50 (L-type calcium channels): 13 µM
inhibition at 1 µM (Kv1.5): 94%
Compound: COc1ccc(CCN2C(=O)N(NC(C)=O)CC2Cc2ccc(C(C)(C)C)cc2)cc1 (stereo not shown) [Compound 71, 1-(Acetylamino)-3-[2-(4-methoxyphenyl)ethyl]-4-[(4-tert-butyl)benzyl]-2-imidazolidinone]
inhibition at 10 µM (HERG): 30%

IC50 (L-type calcium channels): 30 µM
inhibition at 1 µM (Kv1.5): 95%
IC50 (Kv1.5): 0.353 µM
Compound: COc1ccc(CCN2C(=O)N(NCc3ccc(N(C)C)cc3)CC2c2ccc(C)c(C)c2)cc1 (stereo not shown) [Compound 92, 1-[(4-(Dimethylamino)phenylmethyl)amino]-3-[2-(4-methoxyphenyl)ethyl]-4-(3,4-dimethylphenyl)-2-imidazolidinone]
IC50 (HERG): 5.6 µM
inhibition at 10 µM (HERG): 58%

IC50 (L-type calcium channels): 30 µM
inhibition at 1 µM (Kv1.5): 72%
Compound: COc1ccc(CCN2C(=O)N(NC(=O)CS(=O)(=O)N(C)C)CC2c2ccc(C3CC3)cc2)cc1 (stereo not shown) [Compound 82, N-(4-(4-cyclopropylphenyl)-3-(4-methoxyphenethyl)-2-oxoimidazolidin-1-yl)-2-(N,N-dimethylsulfamoyl)acetamide]
inhibition at 10 µM (HERG): 42%

IC50 (L-type calcium channels): 30 µM
inhibition at 1 µM (Kv1.5): 49%
Compound: COc1ccc(CCN2C(=O)N(NS(C)(=O)=O)C[C@H]2c2ccc(OC(F)F)cc2)cc1 [Compound 170, N-{(4R)-4-[4-(difluoromethoxy)phenyl]-3-[2-(4-methoxyphenyl)ethyl]-2-oxoimidazolidin-1-yl}methanesulfonamide]
inhibition at 10 µM (HERG): 62%

IC50 (L-type calcium channels): 2.8 µM
inhibition at 1 µM (Kv1.5): 96%
Compound: COc1ccc(CCN2C(=O)N(NCc3ccc(C#N)cc3)CC2c2ccc(C)c(C)c2)cc1 (stereo not shown) [Compound 83, 1-[(4-Cyanophenylmethyl)amino]-3-[2-(4-methoxyphenyl)ethyl]-4-(3,4-dimethylphenyl)-2-imidazolidinone]
inhibition at 10 µM (HERG): 97%

IC50 (L-type calcium channels): 15 µM
inhibition at 1 µM (Kv1.5): 75%
Compound: COc1ccc(CCN2C(=O)N(NS(=O)(=O)CCS(C)(=O)=O)CC2c2ccc(C3CC3)cc2)cc1 (stereo not shown) [Compound 114, N-{4-(4-cyclopropylphenyl)-3-[2-(4-methoxyphenyl)ethyl]-2-oxoimidazolidin-1-yl}-2-(methylsulfonyl)ethanesulfonamide]
inhibition at 10 µM (HERG): 55%

IC50 (L-type calcium channels): 10 µM
inhibition at 1 µM (Kv1.5): 67%
IC50 (Kv1.5): 0.57 µM
Compound: COc1ccc(CCN2C(=O)N(NCc3ccncc3)CC2c2ccc(C)c(C)c2)cc1 (stereo not shown) [Compound 84, 4-(3,4-Dimethylphenyl)-3-[2-(4-methoxyphenyl)ethyl]-1-[(pyridin-4-ylmethyl)amino]-imidazolidin-2-one]
inhibition at 10 µM (HERG): 73%

IC50 (L-type calcium channels): 14.6 µM
inhibition at 1 µM (Kv1.5): 94%
Compound: COc1ccc(CCN2C(=O)N(NS(C)(=O)=O)C[C@@H]2c2ccc(C(C)(C)C)cc2)cc1 [Compound 173, N-{(4S)-4-(4-tert-butylphenyl)-3-[2-(4-methoxyphenyl)ethyl]-2-oxoimidazolidin-1-yl}methanesulfonamide]
inhibition at 10 µM (HERG): 48%

IC50 (L-type calcium channels): 16 µM
inhibition at 1 µM (Kv1.5): 60%
Compound: COCCN(N1CC(c2ccc(C3CC3)cc2)N(CCc2ccc(OC)cc2)C1=O)S(C)(=O)=O (stereo not shown) [Compound 68, 1-[(N-Methoxyethyl-N-methylsulfonyl)amino]-3-[2-(4-methoxyphenyl)ethyl]-4-(4-cyclopropylphenyl)-2-imidazolidinone]
inhibition at 10 µM (HERG): 48%

More lines, now with the values behind:

Compound: COc1ccc(CCN2C(=O)N(NS(C)(=O)=O)CC2c2ccc3c(c2)OC(C)(C)O3)cc1 (stereo not shown) [Compound 18, 1-(Methylsulfonylamino)-3-[2-(4-methoxyphenyl)ethyl]-4-(2,2-dimethylbenzo-[1,3]dioxol-5-yl)-2-imidazolidinone]
IC50 (L-type calcium channels): 24 µM
inhibition at 1 µM (Kv1.5): 59%
inhibition at 10 µM (HERG): 12%

Compound: CCCS(=O)(=O)NN1CC(c2ccc(C3CC3)cc2)N(CCc2ccc(OC)cc2)C1=O (stereo not shown) [Compound 30, 1-(Propylsulfonylamino)-3-[(4-methoxyphenyl)ethyl]-4-(4-cyclopropylphenyl)-2-imidazolidinone]
IC50 (L-type calcium channels): 3.3 µM
inhibition at 1 µM (Kv1.5): 88%
inhibition at 10 µM (HERG): 62%

Compound: COc1ccc(CCN2C(=O)N(NS(C)(=O)=O)CC2c2ccc3c(c2)OCCO3)cc1 (stereo not shown) [Compound 17, 1-(Methylsulfonylamino)-3-[2-(4-methoxyphenyl)ethyl]-4-[(2,3-dihydro-benzo[1,4]dioxin-6-yl)]-2-imidazolidinone]
IC50 (L-type calcium channels): 40 µM
inhibition at 1 µM (Kv1.5): 89%
inhibition at 10 µM (HERG): 22%

Compound: COc1ccc(CCN2C(=O)N(NS(=O)(=O)CF)CC2c2ccc(C(C)(C)C)cc2)cc1 (stereo not shown) [Compound 36, 1-(Fluoromethylsulfonylamino)-3-[2-(4-methoxyphenyl)ethyl]-4-(4-tert-butyl-phenyl)-2-imidazolidinone]
IC50 (L-type calcium channels): 14 µM
inhibition at 1 µM (Kv1.5): 85%
inhibition at 10 µM (HERG): 50%

Compound: COc1ccc(CCCN2C(=O)N(N)CC2c2ccc(C3CC3)cc2)cc1 (stereo not shown) [Compound 4, 1-Amino-4-(4-cyclopropylphenyl)-3-[3-(4-methoxyphenyl)propyl]-2-imidazolidinone]
IC50 (L-type calcium channels): 4.5 µM
inhibition at 1 µM (Kv1.5): 72%
inhibition at 10 µM (HERG): 53%

Compound: COc1ccc(CCN2C(=O)N(NS(N)(=O)=O)CC2c2ccc(C(C)(C)C)cc2)cc1 (stereo not shown) [Compound 9, 1-(Aminosulfonylamino)-3-[2-(4-methoxyphenyl)ethyl]-4-[4-(tert-butyl)phenyl]-2-imidazolidinone]
IC50 (L-type calcium channels): 23 µM
inhibition at 1 µM (Kv1.5): 90%
IC50 (Kv1.5): 0.689 µM
IC50 (HERG): 7.3 µM
inhibition at 10 µM (HERG): 62%

Compound: COc1ccc(CCN2C(=O)N(NS(=O)(=O)CC(F)(F)F)CC2c2ccc(C(C)(C)C)cc2)cc1 (stereo not shown) [Compound 38, 1-(2,2,2-Trifluoroethanesulfonylamino)-4-[4-(tert-butyl)phenyl]-3-[2-(4-methoxyphenyl)ethyl]-2-imidazolidinone]
IC50 (L-type calcium channels): 5.6 µM
inhibition at 1 µM (Kv1.5): 85%
inhibition at 10 µM (HERG): 56%

Compound: COc1ccc(CCN2C(=O)N(NS(C)(=O)=O)CC2c2ccc(C)c(C)c2)cc1 (stereo not shown) [Compound 7, 1-(Methylsulfonylamino)-3-[2-(4-methoxyphenyl)ethyl]-4-(3,4-dimethylphenyl)-2-imidazolidinone]
IC50 (L-type calcium channels): 43 µM
inhibition at 1 µM (Kv1.5): 92%
IC50 (Kv1.5): 0.232 µM
inhibition at 10 µM (HERG): 16%

Compound: COc1ccc(CCN2C(=O)N(NS(N)(=O)=O)CC2c2ccc(C3CC3)cc2)cc1 (stereo not shown) [Compound 10, 1-(Aminosulfonylamino)-3-[2-(4-methoxyphenyl)ethyl]-4-[(4-cyclopropyl)-phenyl]-2-imidazolidinone]
IC50 (L-type calcium channels): 22 µM
inhibition at 1 µM (Kv1.5): 89%
IC50 (Kv1.5): 0.238 µM
inhibition at 10 µM (HERG): 57%

Compound: COc1ccc(CCN2C(=O)N(NS(=O)(=O)CF)CC2c2ccc(OC)cc2)cc1 (stereo not shown) [Compound 35, 1-(Fluoromethylsulfonylamino)-3-[2-(4-methoxyphenyl)ethyl]-4-(4-methoxy-phenyl)-2-imidazolidinone]
IC50 (L-type calcium channels): 30 µM
inhibition at 1 µM (Kv1.5): 71%
inhibition at 10 µM (HERG): 14%
